Results reported in patent publication US20260327211A1, “MODULATORS OF A POTASSIUM CHANNEL AND OF TRPV1 CHANNEL AND USES THEREOF” (Bsense Bio Therapeutics Ltd., priority 2023, published 2026).
Where two headings read alike, the source gives them in different places.

Key:
Type in all cases: cell-based
hERG = hERG (Homo sapiens, UniProt Q12809); experiment: hERG HCS, FLIPR potassium assay, CHO/hERG; parameters: host or cells: CHO; details: at highest concentration shown, Table 1
Protocol: (§1) Cell culture: Chinese hamster ovary (CHO) cell-line cells with a constitutive expression of human hERG channels (B'SYS GmbH, Switzerland) were cultured in F-12 nutrient mixture (Biological Industries) supplemented with 10% fetal bovine serum (Biological Industries) and 1% penicillin-streptomycin (Biological Industries) in a humidified 5% CO2 incubator at 37° C. To maintain the hERG expression stability of the CHO cell line, antibiotics selection (G418 200 g/mL and Hygromycin 500) was applied.
FLIPR Potassium Assay Kit: The FLIPR Potassium Assay Kit (R8222 FLIPR Potassium Assay Explorer Kits, Molecular Devices) was used with CHO/hERG cell line, for screening compounds against the hERG ion-channel off-target, as detailed hereinabove.
According to optimization process, to achieve a uniform and consistent screening condition of molecules, the following protocol was established: Cells were seeded in 384-well, black-walled, clear-bottomed, at a density of 7,500 cells per well 24 hours before the assay conductance and incubated overnight in their normal growth medium. On the experiment day the medium was replaced with HBSS, HEPES, and the tested compound/vehicle (0.2% DMSO). Dye solution (prepared according to the manufacturer) was added to the wells and plates were incubated for 1.5 hour light-protected in room temperature. The Tecan Spark plate-reader injectors were primed with Tl+(1 mM Tl2SO4) or Tl++K+(1 mM Tl2SO4; 10 mM K2SO4) for channel activation and data correction. […]. To calculate IC50 values, the data was fitted to sigmoidal regression using Prism GraphPad.

rat DRG neurons [1] = experiment: Rat DRG neurons, current-evoked action potential firing; details: for Inhibition of current induced AP response: 100 nM
Source text: (§2) rDRGs isolation and primary cell culture: Briefly, rat DRGs from all spinal levels were carefully removed and collected in HBSS on ices, connective tissue of the epineurium surrounding the ganglion was removed and cells were dissociated using Collagenase-II and trypsin dissociation solutions. DRGs were dissociated further, passed through glass Pasteur pipettes to obtain single cells. Then dissociation solution was changed to 5% FBS containing DRG neuronal culture medium and plated onto ECL coated 12 mm cover glass.
(§3) Additional rDRGs experiments were performed using Lonza primary neonatal rat (Sprague Dawley neonatal; P2,3) DRG neurons (R-DRG-505, Lonza) plated and cultured according to the manufacturer.
(§4) Electrophysiology: Cells were used for electrophysiological recording at least 48 hours following rDRG isolation or at least 5 days following cryopreserved rDRG thawing. Round small neurons (20-40 μm in diameter) were selected for electrophysiology recordings, to select for small nociceptive neurons that propagate pain sensation in vivo and that are expressing both Kv7.2/3 and TRPV1 targets. Membrane excitability was monitored using current clamp configuration of the whole-cell patch-clamp technique. Positive current steps of different amplitude were injected (400 ms) to induce spikes trains before and following compound application.

rat DRG neurons [2] = experiment: Rat DRG neurons, capsaicin-evoked action potential firing; details: for Inhibition of capsaicin induced AP response: 100 nM
Source text: as §2, §3, §4
To assess the potency of compounds using DRG neurons, the inhibitory potency for CAP-evoked action potential (AP) trains was measured. For this purpose, DRG membrane potential was continuously measured, and the following protocol was performed:
Cells were perfused with vehicle containing bath solution. After 30 seconds, CAP (1 μM) was applied for 6 seconds to activate TRPV1 and stimulate AP trains.
After 30 seconds of perfusion with bath solution containing only vehicle, perfusion was changed to a bath solution containing compound, and after 3 minutes of compound application, CAP (1 μM) was applied again for 6 seconds to activate TRPV1 and stimulate AP trains.
Cells perfusion was changed back to bath solution containing only vehicle and after 3 minutes of compound washout, CAP (1 μM) was applied again for 6 seconds to activate TRPV1 and stimulate AP trains.
To evaluate the drug/control response, the number of AP spikes induced by CAP following incubation with test compound was divided by the average number of control AP spikes induced without compound, before compound incubation, and following its washout.

hKv7.2/3 = target: T1, hKv7.2/3 (Homo sapiens, UniProt O43525+O43526); experiment: Kv7.2/7.3 HCS, FLIPR potassium (thallium) assay, CHO/hKv7.2/3
T1 construct: host or cells: CHO
T1 sequence (O43525 whole entry): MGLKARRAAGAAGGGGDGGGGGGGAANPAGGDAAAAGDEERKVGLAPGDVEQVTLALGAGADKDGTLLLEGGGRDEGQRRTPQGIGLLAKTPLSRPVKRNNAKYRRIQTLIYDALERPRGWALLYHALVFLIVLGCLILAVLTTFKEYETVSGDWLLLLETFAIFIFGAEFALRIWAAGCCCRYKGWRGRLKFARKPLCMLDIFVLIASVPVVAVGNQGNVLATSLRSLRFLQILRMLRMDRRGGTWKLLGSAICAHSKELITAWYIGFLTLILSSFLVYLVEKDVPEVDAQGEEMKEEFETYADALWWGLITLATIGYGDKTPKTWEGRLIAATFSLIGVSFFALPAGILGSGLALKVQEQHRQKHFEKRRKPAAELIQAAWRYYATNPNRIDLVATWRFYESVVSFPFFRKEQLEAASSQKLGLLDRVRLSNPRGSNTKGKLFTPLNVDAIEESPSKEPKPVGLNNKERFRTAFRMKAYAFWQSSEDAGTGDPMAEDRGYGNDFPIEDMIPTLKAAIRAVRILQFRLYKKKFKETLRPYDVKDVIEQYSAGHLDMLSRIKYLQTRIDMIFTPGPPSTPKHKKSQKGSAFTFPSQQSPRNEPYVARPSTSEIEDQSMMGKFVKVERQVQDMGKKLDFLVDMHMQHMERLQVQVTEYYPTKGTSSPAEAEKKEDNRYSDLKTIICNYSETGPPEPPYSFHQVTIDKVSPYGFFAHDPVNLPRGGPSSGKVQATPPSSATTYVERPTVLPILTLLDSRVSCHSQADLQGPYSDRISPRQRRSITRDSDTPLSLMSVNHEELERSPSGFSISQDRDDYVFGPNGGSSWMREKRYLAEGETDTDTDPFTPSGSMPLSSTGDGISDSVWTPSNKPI
T1 sequence (O43526 whole entry): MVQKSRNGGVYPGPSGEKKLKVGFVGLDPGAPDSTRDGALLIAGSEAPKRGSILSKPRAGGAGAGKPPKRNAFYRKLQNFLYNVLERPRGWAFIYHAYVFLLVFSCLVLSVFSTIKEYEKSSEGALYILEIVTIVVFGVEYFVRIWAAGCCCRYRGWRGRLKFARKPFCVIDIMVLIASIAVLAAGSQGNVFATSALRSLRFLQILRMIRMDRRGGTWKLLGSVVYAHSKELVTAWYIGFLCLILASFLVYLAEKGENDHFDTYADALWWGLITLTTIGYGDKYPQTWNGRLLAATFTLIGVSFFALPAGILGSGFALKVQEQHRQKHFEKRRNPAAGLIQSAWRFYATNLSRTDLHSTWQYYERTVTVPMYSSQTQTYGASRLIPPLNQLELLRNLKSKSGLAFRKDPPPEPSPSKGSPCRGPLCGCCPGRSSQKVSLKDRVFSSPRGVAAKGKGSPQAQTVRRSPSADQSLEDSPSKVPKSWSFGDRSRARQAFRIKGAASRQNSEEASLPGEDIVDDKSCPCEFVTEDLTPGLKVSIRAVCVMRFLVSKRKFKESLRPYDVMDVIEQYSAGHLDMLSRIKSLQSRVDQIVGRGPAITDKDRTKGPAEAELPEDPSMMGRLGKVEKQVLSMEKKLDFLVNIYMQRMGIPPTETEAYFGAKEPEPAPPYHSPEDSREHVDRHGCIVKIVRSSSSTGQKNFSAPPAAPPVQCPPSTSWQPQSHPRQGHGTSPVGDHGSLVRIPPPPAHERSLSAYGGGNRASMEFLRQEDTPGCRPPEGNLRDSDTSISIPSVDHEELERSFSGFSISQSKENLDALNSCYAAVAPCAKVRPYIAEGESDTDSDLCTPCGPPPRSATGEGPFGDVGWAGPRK
Protocol: as §1, with “Kv7.2/3” for “hERG”, “the” for “the hERG expression”, “human Kv7.2/7.3 expression antibiotic” for “the CHO cell line, antibiotics”, “selection” for “selection (G418 200 g/mL and Hygromycin 500)”, “added (Puromycin 5 μg/ml).” for “applied.”
High content screen (HCS) using FLIPR Potassium Assay Kit: A FLIPR Potassium Assay Kit (R8222 FLIPR Potassium Assay Explorer Kits, Molecular Devices) was used with the CHO/hKv7.2/3 cell line to screen molecules against the hKv7.2/7.3 ion channel target. The assay exploits the permeability of thallium ions (Tl+) through potassium (K+) channels. In this assay, Tl+ indicator dye is used to produce a bright fluorescent signal upon the binding to Tl+ conducted through the potassium channels. The intensity of the Tl+ signal is proportional to the number of potassium channels in the open state. Therefore, it provides a functional indication of the potassium channel activity. To activate the voltage-gate potassium channels, the cells were stimulated with a mixture of K+ and Tl+ to depolarize the cell membrane. The fluorescence increase in the assay represents the influx of Tl+ into the cell specifically through the potassium channel, providing a functional read-out of hKv7.2/3 activity using a fluorescent plate reader coupled with injectors used to activate the channels.
According to optimization process to achieve uniform and consistent screening conditions the following protocol was established: Cells were seeded in 384-well, black-walled, clear-bottomed Greiner #781091, at a density of 5000 cells per well 24 hours before the assay conductance and incubated overnight in their normal growth medium. On the experiment day the medium was replaced with HBSS, HEPES, and the test compound/vehicle (0.2% DMSO). Dye solution (prepared according to the manufacturer) was added to the plates, which were incubated for 1.5 h light-protected in room temperature. Tecan Spark reader plate injectors were primed with Tl+(1 mM Tl2SO4) or Tl++K+(1 mM Tl2SO4; 5 mM K2SO4) for channel activation and data correction. […] To calculate EC50 values, the data was fitted to sigmoidal regression using Prism GraphPad. The fitting was constrained to a minimum of 1 and a maximal response of about 3.6 unless a different maximal response could be clearly identified.

hTRPV1 [3] = target: T2, hTRPV1 (Homo sapiens, UniProt Q8NER1); experiment: TRPV1 HCS, Fluo-8 calcium flux, capsaicin activation, CHO cells expressing hTRPV1
T2 construct: CDS of NM_080704.4, inserted into the multiple cloning site of pcDNA3.1(+); host or cells: CHO/hKv7.2/3
T2 sequence (Q8NER1 whole entry): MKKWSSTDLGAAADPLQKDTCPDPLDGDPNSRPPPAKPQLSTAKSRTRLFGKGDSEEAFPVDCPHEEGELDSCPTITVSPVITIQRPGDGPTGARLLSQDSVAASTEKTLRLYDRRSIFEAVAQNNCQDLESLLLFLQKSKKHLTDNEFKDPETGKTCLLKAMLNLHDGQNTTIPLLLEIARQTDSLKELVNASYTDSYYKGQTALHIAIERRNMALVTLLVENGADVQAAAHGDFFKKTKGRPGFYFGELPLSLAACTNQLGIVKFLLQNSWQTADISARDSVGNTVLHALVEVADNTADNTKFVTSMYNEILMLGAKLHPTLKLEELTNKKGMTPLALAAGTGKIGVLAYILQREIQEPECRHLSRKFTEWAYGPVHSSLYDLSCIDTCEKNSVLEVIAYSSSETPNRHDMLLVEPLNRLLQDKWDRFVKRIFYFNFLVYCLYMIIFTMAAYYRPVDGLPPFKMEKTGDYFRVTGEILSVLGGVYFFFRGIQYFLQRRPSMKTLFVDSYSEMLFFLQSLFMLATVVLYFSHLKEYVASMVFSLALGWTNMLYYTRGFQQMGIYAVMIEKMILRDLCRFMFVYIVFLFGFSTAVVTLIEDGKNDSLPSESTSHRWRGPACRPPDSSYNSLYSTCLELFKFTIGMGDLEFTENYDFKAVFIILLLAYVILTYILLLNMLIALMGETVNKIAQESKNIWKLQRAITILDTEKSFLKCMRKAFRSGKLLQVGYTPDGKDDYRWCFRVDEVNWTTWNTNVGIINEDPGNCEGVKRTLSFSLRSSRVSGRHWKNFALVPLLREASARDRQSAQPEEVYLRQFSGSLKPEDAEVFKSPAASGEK
Protocol: as §1, with “with” for “with a”, “human hTRPV1” for “human hERG”, “the stable” for “the hERG”, “expression” for “expression stability”, “of hTRPV1, antibiotic” for “of the CHO cell line, antibiotics”, “(G418 500 μg/ml)” for “(G418 200 g/mL and Hygromycin 500)”
High content screen (HCS) using Fluo-8 No Wash Calcium flux Assay Kit: Fluo-8 No Wash Calcium Assay Kit (Abcam, ab112129) was used with CHO stably or transiently expressing TRPV1 to screen compounds against the hTRPV1 ion channel target. The cells were pre-loaded with Fluo-8AM which is membrane permeable. The AM groups of the Fluo-8AM were then being cleaved by intracellular esterase, trapping the Fluo8 in the cell. […] The relative fluorescence signal was calculated following background subtraction, comparing the fluorescence at each time point to its maximal level measured following Ionomycin application in the end.
According to optimization process to achieve uniform and consistent screening condition of molecules the following protocol was established: Cells were seeded in 384-well, black-walled, clear-bottomed, at a density of 5,000 cells per well 24 h before the assay conductance and incubated overnight in their normal growth medium. On the experiment day the medium was replaced in each well with HBSS, HEPES, and compound/vehicle (0.2% DMSO). Dye solution (prepared according to the manufacturer) was added to the wells and plates are incubated for 1.5 h light-protected in room temperature. The Tecan Spark plate reader injectors were then primed with capsaicin and Ionomycin for channel activation and data normalization, respectively. […] To calculate IC50 values, the data was fitted to sigmoidal regression line using Prism GraphPad. The fitting was constrained to a minimum of 0 and a maximal response of about 1 unless a different maximal response could be identified.

hTRPV1 [4] = target: T2, hTRPV1; experiment: hTRPV1 dual activity electrophysiology, CHO cells co-expressing hKv7.2/3 and hTRPV1; details: with hKv7.2/3 activation
Protocol: Cell culture and DNA transfection: CHO/hKv7.2/3 cells were transfected with hTRPV1 DNA constructs (CDS of NM_080704.4, inserted into the multiple cloning site of pcDNA3.1(+) between the Hind III and BamH I restriction site, Genscript). For CHO transfection, 1×10^6 cells were suspended in a reaction mix (Amaxa™ 4D-Nucleofector™-LONZA) containing 5 μg of hTRPV1 DNA and 0.5 μg of GFP DNA (for cells selection) in a cuvette.
The cells were transformed (Amaxa, DT-133 program for CHO transfection with p-3 Kit) and recovered for 10 minutes at RT in the hood. Then cells were re-suspended in a 10 mL antibiotic (Ab)-free medium suspension and were plated on Gelatin or PLL-coated cover glass in different cell densities. On the next morning, the medium was changed to full medium containing the CHO/hKv7.2/3 cell line selection antibiotics.
Extracellular (Bath) solution: The solution was composed of (in mM): NaCl, 140; KCl, 4; CaCl2, 1.8; MgCl2, 1.2; Glucose, 11; HEPES, 5.5. pH was adjusted to 7.3 with NaOH. Osmolarity was adjusted to 310 mOsm with Sucrose.
Intracellular (Pipette) solution: Pipettes were pulled from borosilicate glass (Warner Instrument Corp, USA) with a resistance of 3-7 MΩ and were filled with internal solution composed of (in mM): KCl, 130; MgCl2, 1; K ATP, 5; EGTA, 5; HEPES, 10. pH was adjusted to 7.3 with KOH. Osmolarity was adjusted to 290 mOsm with Sucrose.
A programmable valve-linked pressurized perfusion system was used for local application of compounds nearby the cell recorded in a consistent flow rate of 2-3 mL/minute. Series resistance was corrected and data were sampled at 5 kHz and low pass filtered at 2.4 kHz using MultiClamp 700B amplifier with pCLAMP11 software (Molecular Devices, USA).
At least 48 hours following cell transfection and plating, cells were recorded to assess the TRPV1 dual activity. Membrane potential was held at −90 mV. To measure the inhibitory effects of the tested compounds on hTRPV1 dual activity the following protocol was performed:
Cells were perfused with vehicle-only containing bath solution. After 30 seconds, a single −40 mV 1.5 second step was applied for Kv7.2/3 activation and 30 seconds later capsaicin (1 μM) was applied for 6 seconds to activate the TRPV1.
Cells perfusion was changed to a compound-containing bath solution, and after 2 minutes and 30 seconds of compound application, a single −40 mV 1.5 second step was applied for Kv7.2/3 activation and 30 seconds later capsaicin (1 μM) was applied for 6 seconds to activate the TRPV1.
Cells perfusion was thereafter changed back to vehicle only-containing bath solution. After 30 seconds, a single −40 mV 1.5 step was applied for Kv7.2/3 activation and 30 seconds later capsaicin (1 μM) was applied for 6 seconds to activate the TRPV1 followed by a capsaicin wash out.
The drug current response, when capsaicin was injected following 3 minutes of pre-incubation with the test compound, was divided by the averaged control currents, induced without compound, before compound incubation and following its washout, to evaluate the drug/control response.

CHO-K1 cells = experiment: In vitro micronucleus; details: Plate 3 without S9, 24 hours
Protocol: The micronucleus assay was performed according to the regulatory guidelines. In brief, CHO-K1 cells were plated at 10000 cells/well in 3 plates and incubated In CHO-K1 growth medium (containing F12K, 10% FBS and 1% PS) overnight.
As a control for the S9 treatment, plate No. 1, cells were treated with cyclophosphamide as a positive control, for 3 hours. For plate No. 2, without S9 treatment, cells were treated with mitomycin C as a positive control, compounds for 3 hours, and for plate No. 3, without S9 treatment, cells were treated with bleomycin sulfate as a positive control continuously for 24 hours.
On the following day, 6 μg/mL of cytochalasin B were added to each well and plates were further incubated overnight. In the day after medium was replaced with a combined 10 μg/mL Hoechst dye solution and 0.5 μM calcein-AM in 100 μL warm DPBS for 30 minutes and the plates were scanned using CQ1 high-content analysis system.

Sequence of hERG (Q12809 whole entry): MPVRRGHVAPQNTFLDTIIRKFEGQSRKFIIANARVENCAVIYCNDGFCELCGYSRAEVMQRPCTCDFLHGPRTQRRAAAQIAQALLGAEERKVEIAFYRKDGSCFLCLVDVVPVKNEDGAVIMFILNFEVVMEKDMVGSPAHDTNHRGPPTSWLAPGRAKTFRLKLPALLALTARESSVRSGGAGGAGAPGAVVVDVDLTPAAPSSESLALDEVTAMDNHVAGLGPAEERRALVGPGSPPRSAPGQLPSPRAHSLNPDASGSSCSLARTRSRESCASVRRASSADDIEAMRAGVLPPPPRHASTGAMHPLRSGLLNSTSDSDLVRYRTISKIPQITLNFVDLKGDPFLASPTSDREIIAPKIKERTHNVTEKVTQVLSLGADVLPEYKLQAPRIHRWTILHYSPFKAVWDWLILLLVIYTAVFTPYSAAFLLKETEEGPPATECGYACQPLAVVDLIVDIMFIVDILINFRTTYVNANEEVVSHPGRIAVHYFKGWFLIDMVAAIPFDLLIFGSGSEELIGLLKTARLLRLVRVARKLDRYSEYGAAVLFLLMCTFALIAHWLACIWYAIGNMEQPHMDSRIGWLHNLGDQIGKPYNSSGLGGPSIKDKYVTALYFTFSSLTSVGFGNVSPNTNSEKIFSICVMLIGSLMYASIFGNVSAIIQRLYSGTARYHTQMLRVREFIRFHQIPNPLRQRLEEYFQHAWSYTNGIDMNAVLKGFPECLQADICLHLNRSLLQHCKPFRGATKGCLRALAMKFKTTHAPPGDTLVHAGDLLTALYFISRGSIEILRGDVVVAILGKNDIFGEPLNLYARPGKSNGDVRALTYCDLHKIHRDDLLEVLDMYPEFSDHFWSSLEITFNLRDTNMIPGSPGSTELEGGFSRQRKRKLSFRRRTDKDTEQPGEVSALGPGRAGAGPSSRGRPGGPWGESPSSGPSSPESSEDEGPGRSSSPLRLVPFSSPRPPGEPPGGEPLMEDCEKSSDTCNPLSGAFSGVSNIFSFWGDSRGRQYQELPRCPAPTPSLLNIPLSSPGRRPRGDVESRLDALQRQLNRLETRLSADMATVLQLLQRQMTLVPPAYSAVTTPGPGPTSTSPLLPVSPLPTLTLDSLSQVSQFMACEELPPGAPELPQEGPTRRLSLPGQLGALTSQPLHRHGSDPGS

CC(C)c1cc(Cl)cc(Cl)c1C(O)c1ccc(F)c(CC(=O)NCC2(O)CCC2)c1 (racemic) [Compound 533 racemic]
hERG IC50 (inhibition in parentheses) (hERG): 0%
Inhibition of current induced AP response (rat DRG neurons [1]): reduced current induced AP inhibition
Inhibition of capsaicin induced AP response (rat DRG neurons [2]): highly potentiating capsaicin induced AP inhibition
EC50 (hKv7.2/3; Table 1, read-out: Kv7.2/7.3 IC50): 1500 nM

CC(C)c1cc(Cl)cc(Cl)c1C(O)c1ccc(F)c(CC(=O)NCC2(O)CCC2)c1 (single isomer, unassigned) [Compound 533p2]
TRPV1 modulation (words) (hTRPV1 [3]): activates hTRPV1
TRPV1 modulation (words) (hTRPV1 [3]; listed as 533P2): activating TRPV1
Inhibition of current induced AP response (rat DRG neurons [1]; 0.1 µM): inhibits the current-evoked rat DRGs spiking
Inhibition of current induced AP response (rat DRG neurons [1]; listed as 533P2, 0.1 µM): inhibits current induced AP
Inhibition of capsaicin induced AP response (rat DRG neurons [2]; 0.1 µM): facilitated
Inhibition of capsaicin induced AP response (rat DRG neurons [2]; listed as 533P2, 0.1 µM): potentiates capsaicin induced AP
Kv7.2/3 activation (words) (hKv7.2/3): higher
Kv7.2/3 activation (words) (hKv7.2/3; listed as 533P2): more potent activation of Kv7.2/3

CC(C)(C)c1ccc(/C=C/C(=O)Nc2ccc3c(c2)OCCO3)cc1 [AMG9810, reference compound]
hTRPV1 inhibition potency, Kv7.2/3 co-expressed and activated (hTRPV1 [4]): failure to gain TRPV1-inhibition potency
Current evoked response (rat DRG neurons [1]; 50 nM): remains unchanged
Inhibition of capsaicin evoked firing (rat DRG neurons [2]; 50 nM): about 50%

Bleomycin sulfate [reference compound]
Micronucleus response Absolute MEC (CHO-K1 cells): >28 µM
CC50 (CHO-K1 cells; read-out: Cytotoxicity (%) Absolute EC50): 1590 nM
